PMC11973506, “In vitro α–Glucosidase Inhibition, Cytotoxicity, SAR, Swiss ADME Prediction and Molecular Docking Study of New N–Substituted Hydantoin Derivatives” (ChemistryOpen, 2025)
Like-named read-outs stand apart in the source and are kept apart here.

What was measured:
[1] = biological target: T1, Saccharomyces cerevisiae α-glucosidase (Saccharomyces cerevisiae, UniProt P53341); test: In vitro α-glucosidase inhibition assay (p-nitrophenyl glucopyranoside substrate); format: biochemical
T1 construct: purchased
T1 sequence (P53341 whole entry): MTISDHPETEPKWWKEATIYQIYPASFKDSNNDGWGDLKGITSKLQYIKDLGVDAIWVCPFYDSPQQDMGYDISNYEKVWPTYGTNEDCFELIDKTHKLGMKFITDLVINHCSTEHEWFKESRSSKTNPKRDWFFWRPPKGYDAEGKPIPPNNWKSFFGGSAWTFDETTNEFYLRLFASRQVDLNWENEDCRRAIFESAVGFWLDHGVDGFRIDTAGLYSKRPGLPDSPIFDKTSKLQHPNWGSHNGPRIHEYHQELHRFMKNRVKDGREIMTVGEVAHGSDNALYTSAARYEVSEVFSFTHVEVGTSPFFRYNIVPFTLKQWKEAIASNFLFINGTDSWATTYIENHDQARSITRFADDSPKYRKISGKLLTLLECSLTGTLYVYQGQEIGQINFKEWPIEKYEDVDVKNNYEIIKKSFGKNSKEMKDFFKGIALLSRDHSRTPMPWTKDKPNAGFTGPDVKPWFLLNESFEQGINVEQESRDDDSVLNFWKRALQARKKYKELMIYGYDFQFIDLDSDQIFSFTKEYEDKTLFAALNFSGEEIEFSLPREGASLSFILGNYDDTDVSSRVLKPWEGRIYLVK
Method: Using Saccharomyces cerevisiae α‐glucosidase enzymes, hydantoin derivatives 8 a–o were evaluated for them for their in vitro α‐glucosidase activity.
The α‐glucosidase inhibitions of compounds 8 a–o were screened as described in our previous method.[21] Epigallacatechin gallate (EGCG) was used as positive control. The α‐glucosidase enzyme (Saccharomyces Cerevisiae, 50 μg/mL) and substrate (p‐nitrophenyl glucopyranoside) were dissolved in a solution of potassium phosphate buffer (pH 6.3, 3 mM). Final compounds 8 a–o were dissolved in DMSO to give a final concentration of 200 μM. […] All samples (5 μL), enzyme (20 μL), and potassium phosphate buffer (60 μL) were added to the 96‐well plate and incubated at 37 °C for 5 min. Thereafter, the substrate (10 μL, 4 mM) was added to the mixture and incubated at 37 °C for 20 min followed by the addition of sodium carbonate (25 μL). Finally, the absorbance readings were measured by BioTek® PowerWave XS spectrophotometer (Winooski, VT, USA). Since the enzyme and substrate controls […], the percentage of α‐glucosidase inhibition was calculated using follows: (1) %α-glucosidaseinhibition=(A405nmofcontrol-A405nmoftestsample)/A405nmofcontrol×100

Caco2 cell line = conditions: 48 hours of treatment with 100 μM, below 2000 considered toxic
Method: Cytotoxicity screening is one of the important tools used to determine whether a compound is toxic or not. Furthermore, these assays are performed by testing the ability of cells to continue proliferating in the presence of a test compound or substance over a specific period.[23] All hydantoin title compounds 8 a–o were screened for their in vitro cytotoxicity activity using the Caco2 cell line against the untreated (UT) and melphalan as a control. […] Any compound with living cells below […] was considered to be toxic.
The human colorectal adenocarcinoma cell line (CaCO2) used to screen the cytotoxicity of compounds 8 a–o was based on our initially described protocol.[21] […] Samples were sonicated if solubility was a problem and stored at 4 °C until required. Melphalan (100 mM stock) was prepared in DMSO and used as a positive control at a final concentration of 30 μM. The cells (4000 cells/well) were seeded in 96 well plates at 100 μL aliquots and were left for 24 hours to attach. After 24 hours, the 100 μL of the medium was treated with 100 μL aliquots of 200 μM dilution. Cells were maintained in 10 cm culture dishes in 10 mL complete medium (DMEM‐LG+10 % FBS+1× penicillin/streptomycin) and incubated for 48 hours at 37 °C, 5 % CO2, and 100 % relative humidity until needed. After incubation 100 μL staining solution Hoechst (5 μg/mL) and 10 μL PI solution were stained on the plates before they were incubated again for 30 min. Quantification of live and dead cells was performed using the ImageXpress Micro XLS Widefield Microscope (Molecular Devices) using a 10× Plan Fluor objective and DAPI and Texas Red filter cubes. Acquired images were analyzed using the MetaXpress software and Multi‐Wavelength Cell Scoring Application Module. Acquired data was transferred to an Excel spreadsheet and data was analyzed and processed.

[2] = text statement for 50 and 100 μM together

Row | SMILES | α-glucosidase inhibition ([1]; 10 μM) | inhibition at 50 µM ([1]; 50 μM) | inhibition at 100 µM ([1]; 100 μM) | inhibition at 200 µM ([1]; 200 μM) | Cytotoxicity, live cells (Caco2 cell line) | Cytotoxicity, live cells (Caco2 cell line; listed as 8a) | α-glucosidase inhibition ([1]; 200 μM) | α-glucosidase inhibition [1, 2] | inhibition at 10 µM ([1]; 10 μM) | α-glucosidase inhibition ([1]; 50 μM) | α-glucosidase inhibition ([1]; 100 μM)
1 | COC(=O)C(C)NC(=O)CN1C(=O)N/C(=C\c2ccc3c(c2)OCO3)C1=O (stereo not drawn) [8 l] | ‐ | 7.7 ± 17.8% | 9.6 ± 23% | 57.4 ± 4.05% | – | – | – | – | – | – | –
2 | COC(=O)C(C)NC(=O)CN1C(=O)N/C(=C\c2ccc(OC)cc2)C1=O (stereo not drawn) [8 a] | – | – | – | 51.6 ± 2.92% | 2605 | 2605 ± 293 | moderate inhibition | no activity | – | – | –
3 | CCC(NC(=O)CN1C(=O)N/C(=C\c2ccc3c(c2)OCO3)C1=O)C(=O)OC (stereo not drawn) [8 m] | ‐ | 6.94 ± 10.9% | 11.2 ± 11% | 37.6 ± 10% | – | – | – | – | – | – | –
4 | CCC(NC(=O)CN1C(=O)N/C(=C\c2ccc(C)cc2)C1=O)C(=O)OC (stereo not drawn) [8 f] | – | 8.87 ± 21.3% | 12.2 ± 10.9% | – | 2230 ± 570 | – | – | – | 4.92 ± 18% | – | –
5 | CCCC(NC(=O)CN1C(=O)N/C(=C\c2ccc(C)cc2)C1=O)C(=O)OC (stereo not drawn) [8 h] | – | 16.3 ± 15.2% | 25.4 ± 7.88% | 42.8 ± 4.3% | – | – | – | – | 3.45 ± 13.6% | – | –
6 | CCOC(=O)C(C)NC(=O)CN1C(=O)N/C(=C\c2ccc(C)cc2)C1=O (stereo not drawn) [8 i] | ‐ | – | – | 44.6 ± 0.99% | 2595 ± 289 | – | – | no activity | – | ‐ | ‐
7 | O=C(O[C@@H]1Cc2c(O)cc(O)cc2O[C@@H]1c1cc(O)c(O)c(O)c1)c1cc(O)c(O)c(O)c1 [EGCG, Epigallocatechin gallate, reference compound] | – | 97.03 ± 0.41% | 97.03 ± 0.41% | 97.03 ± 0.41% | – | – | – | – | 97.03 ± 0.41% | – | –
8 | COC(=O)C(C)NC(=O)CN1C(=O)N/C(=C\c2ccc(C)cc2)C1=O (stereo not drawn) [8 e] | ‐ | 9.01 ± 16.4% | 9.75 ± 6.4% | 51.4% | 2567 ± 299 | – | 31.35 ± 1.95% | – | – | – | –
9 | CCCC(NC(=O)CN1C(=O)N/C(=C\c2ccc(C)cc2)C1=O)C(=O)OCC (stereo not drawn) [8 k] | – | 14.5 ± 5.42% | 17 ± 8.54% | 41.9 ± 3.31% | – | – | – | – | – | – | –
10 | CCCC(NC(=O)CN1C(=O)N/C(=C\c2ccc3c(c2)OCO3)C1=O)C(=O)OC (stereo not drawn) [8 o] | – | 16 ± 17.9% | 37.4 ± 24.9% | 57.8 ± 6.38% | – | – | – | – | 11.3 ± 15.2% | – | –
11 | CCOC(=O)C(NC(=O)CN1C(=O)N/C(=C\c2ccc3c(c2)OCO3)C1=O)C(C)C (stereo not drawn) [8 n] | – | 14 ± 16.4% | 28.3 ± 17.3% | 57.4 ± 2.79% | 2039 ± 740 | – | – | – | 0.73 ± 11.4% | – | –
12 | COC(=O)C(NC(=O)CN1C(=O)N/C(=C\c2ccc(C)cc2)C1=O)C(C)C (stereo not drawn) [8 g] | – | 4.13 ± 4.26% | 18 ± 3.95% | 45.2 ± 3.6% | – | – | – | – | 1.8 ± 13.8% | – | –
13 | CCC(NC(=O)CN1C(=O)NC(=Cc2ccc(OC)cc2)C1=O)C(=O)OC (stereo not drawn) [8 b] | – | 0.43 ± 16.8% | – | 39.3 ± 1.01% | – | – | – | – | – | – | –
14 | COC(=O)C(NC(=O)CN1C(=O)N/C(=C\c2ccc(OC)cc2)C1=O)C(C)C (stereo not drawn) [8 c] | – | 3.37 ± 11.5% | 9.51 ± 19.7% | 41 ± 2.62% | – | – | – | – | – | – | –
15 | CCOC(=O)C(NC(=O)CN1C(=O)N/C(=C\c2ccc(C)cc2)C1=O)C(C)C (stereo not drawn) [8 j] | – | 13.8 ± 9.6% | 19.2 ± 10.2% | 48.5 ± 2.33% | 2565 ± 198 | – | – | – | 6.49 ± 17.8% | – | –
